Broadly, the IC50 is the point on the concentration scale where inhibition reaches its midpoint.

Read-outs that look alike come from different tables or passages of the source.

For one assay, the system named is DLD1. The assay can be described thus: MTT cytotoxicity assay, DLD1. It counts as cell-based. Conditions: Homo sapiens, DLD-1, DLD1, 72 h. The protocol: (§1) All cell lines were obtained from the American Type Culture Collection (ATCC) and cultured in the specified medium supplemented with 10% fetal bovine serum, 100 IU/mL penicillin, and 100 μg/mL streptomycin at 37°C in a humidified 5% CO2/95% air incubator. Synthesis of new compounds is described in S1 File, and >95% purity of RA475, Up284 and its analogs were confirmed by NMR and MS. To assess drug cytotoxicity, cells were seeded at 2,500 cells/well (10,000 cells/well for MM lines) in 100 μL medium in 96-well plate as triplicates and after 24 h treated with compounds for a further 72 h. To assess cytotoxicity, the cells were incubated for 2 h at 37°C according to the manufacturer’s protocol with the Thiazolyl Blue Tetrazolium Bromide (20 μL/well of 5 mg/mL stock solution in water) (Sigma, M5655) and A570 measured using a Benchmark Plus microplate spectrophotometer (BIO-RAD). IC50 was estimated using Graphpad Prism 7 software.

For the next assay, the system named is ES2. As to the kind of experiment: MTT cytotoxicity assay, ES2. Particulars: Homo sapiens, ES-2, ES2, 72 h. It counts as cell-based. The protocol: as §1
For a further assay, the system named is ID8VegF. As to the kind of experiment: MTT cytotoxicity assay, ID8VegF. It counts as cell-based. Conditions: 72 h. The protocol: as §1
On the technique in general: Tetrazolium assays rely on reduction of a dye to a coloured formazan, in cell work by metabolically active cells.

The test system of the next assay is MC38. As to the kind of experiment: MTT cytotoxicity assay, MC38. It counts as cell-based. Conditions: Mus musculus, MC-38, MC38, 72 h. The protocol: as §1
For another assay, the system named is HCC1806. The assay can be described thus: MTT cytotoxicity assay, HCC1806. Conditions: Homo sapiens, HCC1806, 72 h. It counts as cell-based. The protocol: as §1
The next assay concerns MDA-MB-468. As to the kind of experiment: MTT cytotoxicity assay, MDA-MB-468. It counts as cell-based. Particulars: Homo sapiens, MDA-MB-468, 72 h. The protocol:
as §1

The next assay relates to PEO4. The assay can be described thus: MTT cytotoxicity assay, PEO4. It counts as cell-based. Particulars: Homo sapiens, PEO4, 72 h. Here is the method:
as §1
(§2) We elected to focus on RA475 and expanded the analysis in a larger panel of cell lines including those from common cancer types and normal tissues. […] This panel included another pair of cell lines isolated from another ovarian cancer patient with drug-resistant disease (PEO4) and pre-treatment (PEO1), and both were similarly sensitive to RA475.

The next assay has as its system HepG2. As to the kind of experiment: MTT cytotoxicity assay, HepG2. It counts as cell-based. Conditions: Homo sapiens, HepG2, 72 h. The protocol:
as §1

The subject of another assay is TSH1. The assay can be described thus: MTT cytotoxicity assay, TSH1. It counts as cell-based. Conditions: TSH1, 72 h. The protocol:
as §1

The subject of the next assay is SKMEL2. As to the kind of experiment: MTT cytotoxicity assay, SKMEL2. It counts as cell-based. Conditions: Homo sapiens. The protocol:
as §1

Assay [1] deals with high molecular weight polyubiquitinated proteins in OVCAR3 cells. The assay can be described thus: Anti-ubiquitin immunoblot, OVCAR3. It counts as cell-based, human. Particulars: Up284 0.5 μM, bortezomib 0.25 μM, ixazomib 0.25 μM, RA475 0.5 or 1 μM. From the text: Cell lysate prepared in MPER (Pierce) from each sample was normalized by total protein concentration using the bicinchoninic acid assay and bovine serum albumin standards. Normalized samples were subjected to SDS-PAGE, transferred to PVDF membranes and analyzed by Western blot using antibodies specific to ubiquitin (P4D1, sc-8017, Santa Cruz), PARP (#9542, […]), actin (#66009, Protein Tech Group), Tubulin(#66031, Protein Tech Group), ADRM1/RPN13 (D9Z1U, #12019, Cell Signaling), USP14 (Cell Signal, # 8159), Annexin V (#559763, BD Pharmingen), and for secondary antibodies we utilized either horseradish peroxidase (HRP)-linked anti-mouse IgG or anti-rabbit IgG (GE Healthcare UK Ltd), HRP-linked streptavidin (N100, Thermo Fisher) at the recommended dilution (1:5000).
Accumulation of high molecular weight polyubiquitinated proteins (polyUb) is a classical phenomenon of proteasome function inhibition due to the stabilization of its substrate.
Fig 3 Impact of RA475 on proteasome function. […] Actin was used as loading control. […] C) 4T1 and HCC1806 cells stably expressing 4UbFL were treated with compounds at indicated doses for 4 h and imaged by IVIS200 after the addition of luciferin substrate (50 μL, 7mg/mL in PBS). D) Sub-confluent cultures of ES2 cells stably expressing 4UbFL were seeded at 10,000 cells/well in 96-well microtiter plates. At 18 h post transfection, cells were treated with compounds or vehicle (DMSO) at the doses indicated. After a 4 h incubation, the cells were lysed and the luciferase activity in each cell lysate was determined with a luciferase assay kit (Promega) according to the manufacturer’s instructions. Bioluminescence was measured by using a luminometer (Glomax Multidetection system, Promega) E) A patch was shaved of hair on one leg of CD-1 mice, and 10 μg 4UbFL plasmid in 20 μL of PBS was injected into the quadriceps femoralis muscle followed immediately by injection of the 2 Needle Array to 5 mm depth encompassing the injection site and square wave electroporation (ElectroSquarePorator 833, BTX-2 Needle array 5mm gap, Harvard apparatus) delivered as eight pulses at 106V for 20 ms with 200 ms intervals. One day post electroporation, mice were anesthetized with isoflurane, injected IP with luciferin (0.3 mg in 100 μL water) and optical imaging was performed to determine basal level luciferase expression. Images were acquired for 10 min with a Xenogen IVIS 200 (Caliper, Hopkinton, MA). Equally sized areas were analyzed using Living Image 2.20 software. Mice were imaged weekly during treatment. […]
For orientation: A western blot detects proteins with antibodies after separation by electrophoresis.

For the next assay, the system named is SKOV3. The assay can be described thus: MTT cytotoxicity assay, SKOV3. It counts as cell-based. Conditions: Homo sapiens, SK-OV-3, SKOV3, 72 h. The protocol:
as §1

The subject of assay [2] is cancer lines in S1B Table. The assay can be described thus: MTT cytotoxicity, summary over cell line panel. It counts as cell-based. Conditions: for IC50: 72 h, read-out: mean IC50 across all cancer lines in S1B Table. Here is the method:
as §1
Modifications of Up284 were sought to improve its drug-like properties without significant compromise of its activity in vivo, and several new compounds were synthesized (S1 File). Based on our prior studies of its pharmacophore, the central ring nitrogen was the most logical for addition of charged moieties, including RA475 and RA484. We also examined a change to either 3,4 spiro rings (RA477, RA479), or addition of 3-Fluoro substitutions (RA482) (S1 File). Our focus is developing iRPN13 to treat ovarian cancer resistant to standard of care drug regimens.
as §2

For `Cl.Cl.N#Cc1ccc(/C=C2/C(=O)/C(=C/c3ccc(C#N)cc3)C23CCN(C(=N)N)CC3)cc1` [RA475, 1,3-bis((E)-4-cyanobenzylidene)-2-oxo-7-azaspiro[3.5]nonane-7-carboximidamide dihydrochloride], the IC50 was determined as 495 nM with DLD1; 160 nM in the assay with ES2; 1820 nM in the assay with ID8VegF; 446 nM in the assay with MC38; 113 nM with HCC1806; 292 nM in the assay with MDA-MB-468. The IC50 in the assay on PEO4 was 260 nM; with HepG2 it was 241 nM; with TSH1, 114 nM; with SKMEL2 (SK-MEL-2, 72 h), 156 nM; in the assay with SKOV3 it was 294 nM; in assay [2] it was 420 nM. Moreover, the “forms of polyUb induced” value in assay [1] is “induced forms of polyUb that did not run into the gel”. The “fold less potent than Up284” value in [2] (overall, cell line panel) was “approximately 3 fold”.

Turning to `N#Cc1ccc(/C=C2/C(=O)/C(=C/c3ccc(C#N)cc3)C23CCNCC3)cc1` [Up284, reference compound], the half-inhibitory concentration (IC50) in the assay on DLD1 amounted to 110 nM; with ES2, 125 nM; in the assay on ID8VegF it was 200 nM; in the assay with MC38 it was 60 nM; in the assay on HCC1806, 140 nM; in the assay on MDA-MB-468 it was 72 nM. Moreover, the IC50 in the assay with PEO4 was 61 nM; in the assay with HepG2 it was 90 nM; in the assay with TSH1, 70 nM; with SKMEL2 (SK-MEL-2, SKMEL2, 72 h, MTT, read-out: IC50), 70 nM; with SKOV3 it was 71 nM; in [2] it was 120 nM. For the same molecule, the “forms of polyUb induced” value in assay [1] is “induced forms of polyUb that did not run into the gel”.

These data come from PMC11239005, “Preclinical studies of RA475, a guanidine-substituted spirocyclic candidate RPN13/ADRM1 inhibitor for treatment of ovarian cancer” (PLOS ONE, 2024).
